Assay results as given in US9981940B2, “Aryl sulfide derivatives and aryl sulfoxide derivatives as acaricides and insecticides” (BAYER CROPSCIENCE AKTIENGESELLSCHAFT, priority 2013, dated 2018).

What was measured:
[1] = log P by HPLC (OECD Guideline 117), method [b] neutral range; format: physicochemical; details: HPLC; for logP[b]: method [b] neutral range; for chromatographic logP: reversed-phase C18 HPLC column, neutral range, pH 7.8
Experimental: (§1) The log P values were determined analogously to OECD Guideline 117 (EC Directive 92/69/EEC) by HPLC (high-performance liquid chromatography) using reversed-phase columns (C 18), by the following methods:
[b] The LC-MS determination in the neutral range is effected at pH 7.8 with 0.001 molar aqueous ammonium hydrogencarbonate solution and acetonitrile as eluents; linear gradient from 10% acetonitrile to 95% acetonitrile.

Tetranychus urticae = Tetranychus urticae spray test, OP-resistant (TETRUR); format: in vivo; details: application rate of 500 g/ha, after 6 days
How it was run: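 Bean leaf discs infested with all stages of an OP-resistant Tetranychus urticae strain sprayed with compound in acetone/DMF with alkylaryl polyglycol ether emulsifier, diluted in water. Efficacy in % scored after 6 days; 100% means all mites killed.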

[2] = log P by HPLC (OECD Guideline 117), method [a] acidic range; format: physicochemical; details: for logP[a]: HPLC, method [a] acidic range; for chromatographic logP: reversed-phase C18 HPLC column, acidic range
Experimental: as §1
[a] The LC-MS determination in the acidic range is effected at pH 2.7 with 0.1% aqueous formic acid and acetonitrile (contains 0.1% formic acid) as eluents; linear gradient from 10% acetonitrile to 95% acetonitrile.

Boophilus microplus = Boophilus microplus injection test (BOOPMI Inj); format: in vivo; details: application rate of 20 μg/animal, assessed after 7 days by laying of fertile eggs
Experimental: Use Examples Boophilus microplus Injection Test (BOOPMI Inj) • Solvent: dimethyl sulphoxide
To prepare an appropriate active ingredient formulation, 10 mg of active ingredient are mixed with 0.5 ml of solvent and the concentrate is diluted with solvent to the desired concentration.
1 μl of the active ingredient solution is injected into the abdomen of 5 engorged adult female cattle ticks (Boophilus microplus). The animals are transferred into dishes and kept in a climate-controlled room.
The efficacy is assessed after 7 days by laying of fertile eggs. Eggs which are not visibly fertile are stored in a climate-controlled cabinet until the larvae hatch after about 42 days.
An efficacy of 100% means that none of the ticks has laid any fertile eggs; 0% means that all the eggs are fertile.

Phaedon cochleariae = Phaedon cochleariae spray test (PHAECO); format: in vivo; details: application rate of 500 g/ha, after 7 days
Experimental: Phaedon cochleariae—Spray Test (PHAECO)
• Solvent: 78.0 parts by weight of acetone • 1.5 parts by weight of dimethylformamide • Emulsifier: 0.5 part by weight of alkylaryl polyglycol ether
To produce an appropriate active ingredient formulation, 1 part by weight of active ingredient is mixed with the specified amounts of solvent and emulsifier, and the concentrate is diluted to the desired concentration with emulsifier-containing water.
Discs of Chinese cabbage leaves (Brassica pekinensis) are sprayed with an active ingredient formulation of the desired concentration and, after drying, populated with larvae of the mustard beetle (Phaedon cochleariae).
After 7 days, the efficacy in % is determined 100% means that all beetle larvae have been killed; 0% means that none of the beetle larvae have been killed.

[3] = pH 2.7, HPLC method [a], read-out: logP[a]
[4] = pH 2.7, HPLC, pH 2.7, read-out: log P[a]

| SMILES | logP[b] [1] | efficacy (Tetranychus urticae) [%] | logP[a] [2] | efficacy (Boophilus microplus) [%] | chromatographic logP [1] | chromatographic logP [2, 3] | chromatographic logP [2, 4] | pest or weed control at 500 g/ha (Phaedon cochleariae; Phaedon cochleariae, 168 h, read-out: efficacy) [%] | pest or weed control at 500 g/ha (Tetranychus urticae; Tetranychus urticae, 144 h, read-out: efficacy) [%] | efficacy (Phaedon cochleariae) [%] |
| --- | --- | --- | --- | --- | --- | --- | --- | --- | --- | --- |
| Cc1cc(F)c(-n2nc(OC(C)C)n(C3CC3)c2=O)cc1SCC(F)(F)F [Example 101] | 3.85 | 100 | 3.93 | 100 |  |  |  |  |  |  |
| COc1nn(-c2cc(SCC(F)(F)F)c(C)cc2F)c(=O)n1CC(F)(F)F [Example 393] | 3.47 | 100 | 3.50 | 100 |  |  |  |  |  |  |
| Cc1cc(F)c(-n2nc(OC(C)(C)C)n(C)c2=O)cc1SCC(F)(F)F [Example 157] | 3.88 | 100 | 3.98 | 100 |  |  |  |  |  |  |
| COc1nn(-c2ccc(C(F)(F)F)c(SCC(F)(F)F)c2)c(=O)n1C [Example 95, 5-Methoxy-4-methyl-2-{3-[(2,2,2-trifluoroethyl)sulphanyl]-4-(trifluoromethyl)phenyl}-2,4-dihydro-3H-1,2,4-triazol-3-one] |  |  |  |  | 3.64 | 3.74 | 3.74 | 83 |  |  |
| Cc1cc(F)c(-n2nnn(C)c2=O)cc1[S+]([O-])CC(F)(F)F (centres unmarked) [Example 301, 1-{2-Fluoro-4-methyl-5-[(2,2,2-trifluoroethyl)sulphinyl]phenyl}-4-methyl-1,4-dihydro-5H-tetrazol-5-one] |  |  |  | 100 | 1.82 | 1.87 | 1.87 |  | 100 |  |
| Cn1c(C(F)(F)F)nn(-c2cc(SCC(F)(F)F)c(C#N)cc2F)c1=O [Example 38] | 3.08 | 100 | 3.09 | 100 |  |  |  |  |  |  |
| COc1ccc(-n2nc(OC)n(C3CC3)c2=O)cc1[S+]([O-])CC(F)(F)F (centres unmarked) [Example 109] | 2.30 |  | 2.34 |  |  |  |  |  |  | 100 |
| Cc1cc(F)c(-n2nc(C(F)(F)F)n(C3CC3)c2=O)cc1[S+]([O-])CC(F)(F)F (centres unmarked) [Example 60] | 2.82 | 90 | 2.93 | 100 |  |  |  |  |  |  |
| Cc1cc(F)c(-n2nc([S+](C)[O-])n(C3CC3)c2=O)cc1[S+]([O-])CC(F)(F)F (centres unmarked) [Example 231] | 1.58 | 100 | 1.61 | 100 |  |  |  |  |  |  |
| CCn1c([S+](C)[O-])nn(-c2cc([S+]([O-])CC(F)(F)F)c(C)cc2F)c1=O (centres unmarked) [Example 241] | 1.61 | 100 | 1.65 | 100 |  |  |  |  |  |  |
| CSc1nn(-c2cc([S+]([O-])CC(F)(F)F)c(C)cc2F)c(=O)n1C1CC1 (centres unmarked) [Example 257] | 2.40 | 100 | 2.45 | 100 |  |  |  |  |  |  |
| Cc1cc(F)c(-n2nc(S(C)(=O)=O)n(C3CC3)c2=O)cc1[S+]([O-])CC(F)(F)F (centres unmarked) [Example 228] | 2.08 | 90 | 2.12 | 100 |  |  |  |  |  |  |
| Cc1cc(F)c(-n2nc(C(F)(F)F)n(N)c2=O)cc1[S+]([O-])CC(F)(F)F (centres unmarked) [Example 215] | 2.17 | 100 | 2.19 | 100 |  |  |  |  |  |  |
| CCn1c(SC)nn(-c2cc([S+]([O-])CC(F)(F)F)c(C)cc2F)c1=O (centres unmarked) [Example 270] | 2.33 | 100 | 2.39 | 100 |  |  |  |  |  |  |
